Read-outs that look alike come from different tables or passages of the source. Positions of bridges follow the written chain, without caps; N, C: chain ends. Non-standard residues stand in square brackets, D forms with d. Residues, ends and D or L forms follow the SMILES beside them. Chains are numbered I, II in the order given. Lys(Me3) = C[N+](C)(C)CCCC[C@H](N)C(=O)O
Molecular target: T1, PSIP1^PWWP (AA 2-100, Uniprot-ID: O75475) (Homo sapiens, UniProt O75475)
T1 construct: PSIP1^PWWP (AA 2-100, Uniprot-ID: O75475); GST (cleaved yes); made in house; host or cells: E. coli BL21 Rosetta2 (DE3)
Assay: NMR titration (15N-HSQC chemical shift perturbation) of peptides binding to PSIP1 PWWP domain
Protocol: Cells were grown to an OD of 0.6 and induced with 500 μM IPTG. The protein was expressed for 3 h at 37 °C. […] The GST-fusion protein was eluted using elution buffer (50 mM KPi pH 7.0, 100 mM KCl, 50 mM reduced glutathione, 1 mM DTT, complete EDTA-free protease inhibitor (Roche)). Thrombin cleavage of the GST-tag was carried out for 3 h at 37 °C after adding 10U of thrombin to the combined eluted fractions, then quenched by addition of 1 mM PMSF and incubation for 15 min at 37 °C. […] The PWWP-containing fractions were then combined and dialyzed to NMR buffer (20 mM NaPi (pH = 7.0), 150 mM NaCl, cOmplete protease inhibitor, 10% (v/v) D2O).
All peptides were dissolved in NMR buffer (20 mM NaPi (pH = 7.0), 150 mM NaCl, cOmplete protease inhibitor, 10% (v/v) D2O). The pH for all peptide stocks was adjusted to 7.0 using NH4OH. Determination of peptide stock concentrations was done using 1D NMR spectra with TSP as reference compound. […] The Val signal was verified by 2D NMR spectra (TOCSY, ^13C-HSQC).
All NMR experiments were carried out at 298 K on a Bruker Avance spectrometer operating at 750 MHz ^1H Larmor frequency with room-temperature probe. Processing was done using the Bruker’s TopSpin. Spectra were analyzed using Sparky (Goddard and Kneller, UCSF).
Titration data were fitted using MatLAB scripts (available upon request) using the fast-exchange assumption [50]. […] Profiles were selected either form the ^1H or ^15N dimension. A 1:1 binding model was assumed. […] The degrees of freedom are equal to total number of points NM compensated for the number of global variables (KD), the M offset-variables and M chemical shift differences. To obtain the 95% confidence limits in the KD, a one-dimensional grid search was performed either systematically increasing or decreasing the KD until the reduced χ^2 exceeded the 95% critical value according to an F-test.
Analysis of the bound-state chemical shifts was based on selected residues K14 (^1H/^15N), M15 (^1H), W21 (^1H), F44 (^15N) T47 (^1H/^15N), H48 (^1H), T50 (^1H/^15N) and A51 (^1H/^15N) due to their significant shift in all experiments.

T1 sequence (O75475 2-100): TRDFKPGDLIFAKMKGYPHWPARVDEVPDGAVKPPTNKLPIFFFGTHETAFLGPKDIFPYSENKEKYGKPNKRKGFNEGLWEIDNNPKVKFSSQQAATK

## CC(=O)N[C@@H](CO)C(=O)N[C@@H](C)C(=O)N1CCC[C@H]1C(=O)N[C@@H](C)C(=O)N[C@H](C(=O)NCC(=O)NCC(=O)N[C@H](C(=O)N[C@@H](CCCC[N+](C)(C)C)C(=O)NCC(=O)NCC(=O)NCCCC[C@H](NC(=O)CNC(=O)CNC(=O)[C@H](CCC(=O)O)NC(=O)[C@H](CCC(=O)O)NC(=O)[C@H](CCC(=O)O)NC(=O)[C@H](CCC(=O)O)NC(=O)[C@H](CCC(=O)O)NC(C)=O)C(=O)NCC(=O)NCC(=O)N[C@@H](CCC(=O)O)C(=O)N[C@@H](CCC(=O)O)C(=O)N[C@@H](CCC(=O)O)C(=O)N[C@@H](CCC(=O)O)C(=O)N[C@@H](CCC(=O)O)C(N)=O)C(C)C)[C@@H](C)O [H3^(E5)2] (I: Ac-EEEEEGGKGGEEEEE-NH2 / II: Ac-SAPATGGV[Lys(Me3)]GG; amide I:8-II:C; N-terminus and C-terminus assumed)
Same titration and fit, limits from grid search, F-test, read-out: KD, 95% probability limits
  Kd: 190 to 700 µM
~300 µM 15N-PSIP1^PWWP, 20 mM NaPi pH 7.0, 150 mM NaCl, 298 K, 1:1 binding model, read-out: KD (global fit of NMR-derived binding curves)
  Kd: 360 µM

## CC(=O)N[C@@H](CO)C(=O)N[C@@H](C)C(=O)N1CCC[C@H]1C(=O)N[C@@H](C)C(=O)N[C@H](C(=O)NCC(=O)NCC(=O)N[C@H](C(=O)N[C@@H](CCCC[N+](C)(C)C)C(=O)N[C@@H](CCCCN)C(=O)N1CCC[C@H]1C(=O)N[C@@H](CCC(=O)O)C(=O)N[C@@H](CCC(=O)O)C(=O)N[C@@H](CCC(=O)O)C(=O)N[C@@H](CCC(=O)O)C(=O)N[C@@H](CCC(=O)O)C(=O)N[C@@H](CCC(=O)O)C(N)=O)C(C)C)[C@@H](C)O [H3^PE6] (Ac-SAPATGGV[Lys(Me3)]KPEEEEEE-NH2)
~300 µM 15N-PSIP1^PWWP, 20 mM NaPi pH 7.0, 150 mM NaCl, 10% D2O, 298 K, 1:1 binding model, fast exchange, global fit of all residues with significant CSP, read-out: KD, best-fit value (global fit of NMR titration data)
  Kd: 1740 µM

Source: paper PMC7662849, “Mimicking the Nucleosomal Context in Peptide-Based Binders of a H3K36me Reader Increases Binding Affinity While Altering the Binding Mode” (Molecules, 2020)
